According to patent publication US11345711B2, “8,9-dihydroimidazo[1,2-a]pyrimido[5,4-e]pyrimidin-5(6H)-ones” (IMPACT THERAPEUTICS (SHANGHAI), INC, priority 2016, dated 2022):
Read-outs that look alike come from different tables or passages of the source.

Legend:
Wee1 (h) = Wee1 (h) (Homo sapiens, UniProt P30291); assay: Wee1 kinase (h) detection method, [γ-33P]-ATP filter assay; type: biochemical
LoVo cells = assay: MTT based cell viability assay on LoVo cells; conditions: Homo sapiens, LoVo, 72 h, 3 d, read-out: IC50, growth inhibition of LoVo cells
Summary of the method: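 Inhibition of LoVo proliferation was derived as IC50 from a sigmoidal dose-response fit of cell survival. Readout was MTT (0.5 mg/mL, 4 h) with absorbance at 552/630/690 nm, after 3-day treatment at 37 °C. Eight-point series from 10 μM to 0.01 μM, DMSO control, 1% DMSO final.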

NCI-H1299 cells = assay: MTT based cell viability assay on NCI-H1299 cells; conditions: Homo sapiens, read-out: IC50, growth inhibition of NCI-H1299 cells
Summary of the method: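 Viability read-out was MTT reduction (0.5 mg/mL, 4 h, absorbance 552/630/690 nm) after 3-day compound exposure at 37 °C of NCI-H1299 cells seeded at 1000 per well. Dilutions spanned 10 μM–0.01 μM in DMSO, final DMSO 1‰. Survival-versus-concentration curves were fitted sigmoidally to give IC50.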

Wee1 (h), sequence (P30291 whole entry): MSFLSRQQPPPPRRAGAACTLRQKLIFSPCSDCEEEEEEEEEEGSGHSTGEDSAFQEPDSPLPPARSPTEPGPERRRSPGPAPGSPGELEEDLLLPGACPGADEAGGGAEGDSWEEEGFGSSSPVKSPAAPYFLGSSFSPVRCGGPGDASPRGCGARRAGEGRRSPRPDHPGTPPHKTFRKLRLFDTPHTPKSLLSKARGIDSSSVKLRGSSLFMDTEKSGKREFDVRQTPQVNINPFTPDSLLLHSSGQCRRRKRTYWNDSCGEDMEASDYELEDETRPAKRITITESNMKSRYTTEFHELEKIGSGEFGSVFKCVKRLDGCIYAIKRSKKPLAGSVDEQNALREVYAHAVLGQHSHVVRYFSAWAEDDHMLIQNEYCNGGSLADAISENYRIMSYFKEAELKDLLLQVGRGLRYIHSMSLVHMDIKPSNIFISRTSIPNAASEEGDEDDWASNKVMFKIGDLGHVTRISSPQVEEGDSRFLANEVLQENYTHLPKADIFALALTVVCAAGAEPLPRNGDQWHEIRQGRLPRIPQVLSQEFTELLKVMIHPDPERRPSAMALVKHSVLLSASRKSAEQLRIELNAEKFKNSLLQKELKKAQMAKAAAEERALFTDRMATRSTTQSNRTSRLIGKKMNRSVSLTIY

| Compound | Inh. (%) of Wee1 kinase enzyme activity (Wee1 (h); C 1 μm compound) [%] | IC50 (LoVo cells) [nM] | IC50 (NCI-H1299 cells; NCI-H1299, NCI-H1299 cells) [nM] | Inh. (%) of Wee1 kinase enzyme activity (Wee1 (h); C 0.01 μm compound) [%] | Inh. (%) of Wee1 kinase enzyme activity (Wee1 (h); C 0.1 μm compound) [%] | IC50 (NCI-H1299 cells; NCI-H1299 cells) [nM] |
| --- | --- | --- | --- | --- | --- | --- |
| CN1CCN(c2c(Cl)cc(Nc3ncc4c(n3)N3CCN=C3N(c3c(Cl)cccc3Cl)C4=O)cc2C(F)(F)F)CC1 [Example 152, 6-(2,6-Dichlorophenyl)-2-((3-chloro-4-(4-methylpiperazin-1-yl)-5-(trifluoromethyl)phenyl)amino)-8,9-dihydroimidazo[1,2-a]pyrimido[5,4-e]pyrimidin-5(6H)-one] | 88 | 139 | 1950 | – | – | – |
| COc1cc(Nc2ncc3c(n2)N2CCN=C2N(c2c(Cl)cccc2Cl)C3=O)cc(Cl)c1N1CCN(C)CC1 [Example 153, 6-(2,6-Dichlorophenyl)-2-((3-chloro-5-methoxy-4-(4-methylpiperazin-1-yl)phenyl)amino)-8,9-dihydroimidazo[1,2-a]pyrimido[5,4-e]pyrimidin-5(6H)-one] | 94 | 56.3 | 235 | 30 | 84 | – |
| CN1CCN(c2c(F)cc(Nc3ncc4c(n3)N3CCN=C3N(c3c(Cl)cccc3Cl)C4=O)cc2Br)CC1 [Example 154, 6-(2,6-Dichlorophenyl)-2-((3-bromo-5-fluoro-4-(4-methylpiperazin-1-yl)phenyl)amino)-8,9-dihydroimidazo[1,2-a]pyrimido[5,4-e]pyrimidin-5(6H)-one] | 96 | 63.3 | 174 | 25 | 72 | – |
| CN1CCN(c2c(Cl)cc(Nc3ncc4c(n3)N3CCN=C3N(c3c(Cl)cccc3Cl)C4=O)cc2Br)CC1 [Example 155, 6-(2,6-Dichlorophenyl)-2-((3-bromo-5-chloro-4-(4-methylpiperazin-1-yl)phenyl)amino)-8,9-dihydroimidazo[1,2-a]pyrimido[5,4-e]pyrimidin-5(6H)-one] | 94 | 74.1 | 109 | 16 | 66 | – |
| Cc1cc(Nc2ncc3c(n2)N2CCN=C2N(c2c(Cl)cccc2Cl)C3=O)cc(Br)c1N1CCN(C)CC1 [Example 156, 6-(2,6-Dichlorophenyl)-2-((3-bromo-5-methyl-4-(4-methylpiperazin-1-yl)phenyl)amino)-8,9-dihydroimidazo[1,2-a]pyrimido[5,4-e]pyrimidin-5(6H)-one] | 96 | 62.7 | 150 | 19 | 81 | – |
| COc1cc(Nc2ncc3c(n2)N2CCN=C2N(c2c(Cl)cccc2Cl)C3=O)cc(Br)c1N1CCN(C)CC1 [Example 157, 6-(2,6-Dichlorophenyl)-2-((3-bromo-5-methoxy-4-(4-methylpiperazin-1-yl)phenyl)amino)-8,9-dihydroimidazo[1,2-a]pyrimido[5,4-e]pyrimidin-5(6H)-one] | 91 | 38.6 | – | – | – | 222 |
| Cc1cc(Nc2ncc3c(n2)N2CCN=C2N(c2c(Cl)cccc2Cl)C3=O)cc(C)c1N1CCN(C)CC1 [Example 158, 6-(2,6-Dichlorophenyl)-2-((3,5-dimethyl-4-(4-methylpiperazin-1-yl)phenyl)amino)-8,9-dihydroimidazo[1,2-a]pyrimido[5,4-e]pyrimidin-5(6H)-one] | 95 | 58.5 | 105 | 27 | 84 | – |
| Cc1cc(Nc2ncc3c(n2)N2CCN=C2N(c2c(Cl)cccc2Br)C3=O)cc(F)c1N1CCC(N(C)C)CC1 [Example 160, 6-(2-Bromo-6-chlorophenyl)-2-((4-(4-(dimethylamino)piperidin-1-yl)-3-fluoro-5-methylphenyl)amino)-8,9-dihydroimidazo[1,2-a]pyrimido[5,4-e]pyrimidin-5(6H)-one] | 98 | 27.3 | 62.8 | 31 | 85 | – |
| CN1CCN(c2ccc(Nc3ncc4c(n3)N3CCN=C3N(c3c(Cl)cccc3Br)C4=O)cc2Cl)CC1 [Example 161, 6-(2-Bromo-6-chlorophenyl)-2-((3-chloro-4-(4-methylpiperazin-1-yl)phenyl)amino)-8,9-dihydroimidazo[1,2-a]pyrimido[5,4-e]pyrimidin-5(6H)-one] | 97 | 93.3 | – | 27 | 72 | 217 |
| CN1CCN(c2ccc(Nc3ncc4c(n3)N3CCN=C3N(c3c(Cl)cccc3Br)C4=O)cc2Br)CC1 [Example 162, 6-(2-Bromo-6-chlorophenyl)-2-((3-bromo-4-(4-methylpiperazin-1-yl)phenyl)amino)-8,9-dihydroimidazo[1,2-a]pyrimido[5,4-e]pyrimidin-5(6H)-one] | 98 | 65.2 | – | 22 | 86 | 207 |
| Cc1cc(Nc2ncc3c(n2)N2CCN=C2N(c2c(Cl)cccc2Br)C3=O)ccc1N1CCN(C)CC1 [Example 163, 6-(2-Bromo-6-chlorophenyl)-2-((3-methyl-4-(4-methylpiperazin-1-yl)phenyl)amino)-8,9-dihydroimidazo[1,2-a]pyrimido[5,4-e]pyrimidin-5(6H)-one] | 99 | 62.5 | – | 25 | 87 | 97.8 |
| CN1CCN(c2c(Cl)cc(Nc3ncc4c(n3)N3CCN=C3N(c3c(Cl)cccc3Br)C4=O)cc2Cl)CC1 [Example 164, 6-(2-Bromo-6-chlorophenyl)-2-((3,5-dichloro-4-(4-methylpiperazin-1-yl)phenyl)amino)-8,9-dihydroimidazo[1,2-a]pyrimido[5,4-e]pyrimidin-5(6H)-one] | 97 | 101 | 159 | 17 | 68 | – |
| Cc1cc(Nc2ncc3c(n2)N2CCN=C2N(c2c(Cl)cccc2Br)C3=O)cc(F)c1N1CCN(C)CC1 [Example 165, 6-(2-Bromo-6-chlorophenyl)-2-((3-fluoro-5-methyl-4-(4-methylpiperazin-1-yl)phenyl)amino)-8,9-dihydroimidazo[1,2-a]pyrimido[5,4-e]pyrimidin-5(6H)-one] | 92 | 24.1 | 97.3 | – | – | – |
| Cc1cc(Nc2ncc3c(n2)N2CCN=C2N(c2c(Cl)cccc2Br)C3=O)cc(Cl)c1N1CCN(C)CC1 [Example 166, 6-(2-Bromo-6-chlorophenyl)-2-((3-chloro-5-methyl-4-(4-methylpiperazin-1-yl)phenyl)amino)-8,9-dihydroimidazo[1,2-a]pyrimido[5,4-e]pyrimidin-5(6H)-one] | 98 | 55.5 | 99.3 | 28 | 86 | – |
| Cc1cc(Nc2ncc3c(n2)N2CCN=C2N(c2c(Cl)cccc2Br)C3=O)cc(Br)c1N1CCN(C)CC1 [Example 167, 6-(2-Bromo-6-chlorophenyl)-2-((3-bromo-5-methyl-4-(4-methylpiperazin-1-yl)phenyl)amino)-8,9-dihydroimidazo[1,2-a]pyrimido[5,4-e]pyrimidin-5(6H)-one] | 98 | 62.7 | 107 | 21 | 82 | – |
| Cc1cccc(F)c1N1C(=O)c2cnc(Nc3ccc(N4CCN(C)CC4)c(Cl)c3)nc2N2CCN=C21 [Example 168, 6-(2-Fluoro-6-methylphenyl)-2-((3-chloro-4-(4-methylpiperazin-1-yl)phenyl)amino)-8,9-dihydroimidazo[1,2-a]pyrimido[5,4-e]pyrimidin-5(6H)-one] | 89 | 296 | – | – | – | 599 |
